Data as given in ChEMBL document CHEMBL3885881, “DrugMatrix”.

Species on record: Rattus norvegicus
Assay type: toxicity, organism-based, Sprague-Dawley
Settings: in vivo, po, route oral GAVAGE, vehicle 100 % SALINE; for ABSOLUTE EOSINOPHIL / ABSOLUTE LYMPHOCYTE / ABSOLUTE MONOCYTE / ABSOLUTE SEGMENTED NEUTROPHIL / BASOPHIL / EOSINOPHIL / ERYTHROCYTE COUNT / HEMATOCRIT / HEMOGLOBIN / LEUKOCYTE COUNT / LYMPHOCYTE / MEAN CORPUSCULAR HEMOGLOBIN / MEAN CORPUSCULAR HEMOGLOBIN CONCENTRATION / MEAN CORPUSCULAR VOLUME / MONOCYTE / NEUTROPHIL / NUCLEATED RED BLOOD CELLS / PLATELET COUNT: tissue Blood; for ALANINE AMINOTRANSFERASE / ALBUMIN / ALKALINE PHOSPHATASE / ASPARTATE AMINOTRANSFERASE / BLOOD UREA NITROGEN / CARBON DIOXIDE / CHLORIDE / CHOLESTEROL / CREATINE PHOSPHOKINASE / CREATININE / GLUCOSE / LACTATE DEHYDROGENASE / LIPASE / PHOSPHORUS / POTASSIUM / SODIUM / TOTAL BILIRUBIN / TOTAL PROTEIN / URIC ACID: tissue Plasma
[1] = 0 mg/kg, 6 h, vehicle control, dose level Control, time 0.25 day
[2] = 0 mg/kg, 24 h, vehicle control, dose level Control, time 1 day
[3] = 10 mg/kg, 6 h, dose level Low, time 0.25 day

Description: DrugMatrix - Regimen: Single

## O=[As][O-].[Na+] [SODIUM ARSENITE]
[1]
  ABSOLUTE EOSINOPHIL: 24 CELLS/uL
  ABSOLUTE LYMPHOCYTE: 11958.17 CELLS/uL
  ABSOLUTE MONOCYTE: 398.83 CELLS/uL
  ABSOLUTE SEGMENTED NEUTROPHIL: 1252.33 CELLS/uL
  BASOPHIL: 0%
  EOSINOPHIL: 0.17%
  ERYTHROCYTE COUNT: 5.37 x10E6/uL
  HEMATOCRIT: 35.6%
  HEMOGLOBIN: 13.05 G/DL
  LEUKOCYTE COUNT: 13.63 x10E3/uL
  LYMPHOCYTE: 87.67%
  MEAN CORPUSCULAR HEMOGLOBIN: 24.28 pg
  MEAN CORPUSCULAR HEMOGLOBIN CONCENTRATION: 36.67 G/DL
  MEAN CORPUSCULAR VOLUME: 66.28 fL
  MONOCYTE: 2.83%
  NEUTROPHIL: 9.33%
  NUCLEATED RED BLOOD CELLS: 0 /100WBC
  PLATELET COUNT: 947.83 x10E3/uL
  ALANINE AMINOTRANSFERASE: 51 u/L
  ALBUMIN: 4.02 G/DL
  ALKALINE PHOSPHATASE: 312.33 u/L
  ASPARTATE AMINOTRANSFERASE: 98.17 u/L
  BLOOD UREA NITROGEN: 9.5 mg/dL
  CARBON DIOXIDE: 18.83 mmol/L
  CHLORIDE: 103.5 MEQ/L
  CHOLESTEROL: 69.5 mg/dL
  CREATINE PHOSPHOKINASE: 580.17 u/L
  CREATININE: 0.53 mg/dL
  GLUCOSE: 175.67 mg/dL
  LACTATE DEHYDROGENASE: 295.5 u/L
  LIPASE: 8.17 u/L
  PHOSPHORUS: 14.12 mg/dL
  POTASSIUM: 5.77 MEQ/L
  SODIUM: 144.13 MEQ/L
  TOTAL BILIRUBIN: 0.12 mg/dL
  TOTAL PROTEIN: 4.87 G/DL
  URIC ACID: 2.25 mg/dL
[2]
  ABSOLUTE EOSINOPHIL: 0 CELLS/uL
  ABSOLUTE LYMPHOCYTE: 12232.83 CELLS/uL
  ABSOLUTE MONOCYTE: 20.33 CELLS/uL
  ABSOLUTE SEGMENTED NEUTROPHIL: 780.17 CELLS/uL
  BASOPHIL: 0%
  EOSINOPHIL: 0%
  ERYTHROCYTE COUNT: 5.18 x10E6/uL
  HEMATOCRIT: 33.48%
  HEMOGLOBIN: 13.22 G/DL
  LEUKOCYTE COUNT: 13.03 x10E3/uL
  LYMPHOCYTE: 93.33%
  MEAN CORPUSCULAR HEMOGLOBIN: 25.57 pg
  MEAN CORPUSCULAR HEMOGLOBIN CONCENTRATION: 39.52 G/DL
  MEAN CORPUSCULAR VOLUME: 64.65 fL
  MONOCYTE: 0.17%
  NEUTROPHIL: 6.5%
  NUCLEATED RED BLOOD CELLS: 0 /100WBC
  PLATELET COUNT: 931.5 x10E3/uL
  ALANINE AMINOTRANSFERASE: 60.83 u/L
  ALBUMIN: 4.18 G/DL
  ALKALINE PHOSPHATASE: 283.33 u/L
  ASPARTATE AMINOTRANSFERASE: 80.5 u/L
  BLOOD UREA NITROGEN: 11.83 mg/dL
  CARBON DIOXIDE: 35.33 mmol/L
  CHLORIDE: 98.5 MEQ/L
  CHOLESTEROL: 80 mg/dL
  CREATINE PHOSPHOKINASE: 181.83 u/L
  CREATININE: 0.2 mg/dL
  GLUCOSE: 142.67 mg/dL
  LACTATE DEHYDROGENASE: 65.5 u/L
  LIPASE: 9.83 u/L
  PHOSPHORUS: 9.82 mg/dL
  POTASSIUM: 5.69 MEQ/L
  SODIUM: 143.35 MEQ/L
  TOTAL BILIRUBIN: 0.15 mg/dL
  TOTAL PROTEIN: 6.2 G/DL
  URIC ACID: 0.42 mg/dL
[3]
  ABSOLUTE EOSINOPHIL: 25.17 CELLS/uL
  ABSOLUTE LYMPHOCYTE: 12416.17 CELLS/uL
  ABSOLUTE MONOCYTE: 214.33 CELLS/uL
  ABSOLUTE SEGMENTED NEUTROPHIL: 1561 CELLS/uL
  BASOPHIL: 0%
  EOSINOPHIL: 0.17%
  ERYTHROCYTE COUNT: 5.72 x10E6/uL
  HEMATOCRIT: 37.97%
  HEMOGLOBIN: 13.92 G/DL
  LEUKOCYTE COUNT: 14.22 x10E3/uL
  LYMPHOCYTE: 87.33%
  MEAN CORPUSCULAR HEMOGLOBIN: 24.38 pg
  MEAN CORPUSCULAR HEMOGLOBIN CONCENTRATION: 36.67 G/DL
  MEAN CORPUSCULAR VOLUME: 66.45 fL
  MONOCYTE: 1.5%
  NEUTROPHIL: 11%
  NUCLEATED RED BLOOD CELLS: 0 /100WBC
  PLATELET COUNT: 1120 x10E3/uL
  ALANINE AMINOTRANSFERASE: 87.17 u/L
  ALBUMIN: 4.02 G/DL
  ALKALINE PHOSPHATASE: 245.5 u/L
  ASPARTATE AMINOTRANSFERASE: 141.33 u/L
  BLOOD UREA NITROGEN: 12.83 mg/dL
  CARBON DIOXIDE: 19 mmol/L
  CHLORIDE: 104 MEQ/L
  CHOLESTEROL: 63.17 mg/dL
  CREATINE PHOSPHOKINASE: 934.5 u/L
  CREATININE: 0.27 mg/dL
  GLUCOSE: 184.33 mg/dL
  LACTATE DEHYDROGENASE: 393.33 u/L
  LIPASE: 8.83 u/L
  PHOSPHORUS: 14.3 mg/dL
  POTASSIUM: 6.23 MEQ/L
  SODIUM: 142.98 MEQ/L
  TOTAL BILIRUBIN: 0.12 mg/dL
  TOTAL PROTEIN: 5.28 G/DL
  URIC ACID: 2.03 mg/dL
